≈ marks a conversion by molar mass, not a printed value. Entries after “also recorded” stand apart in the source; their conditions may differ.
Legend:
[1] = Eukaryotic cell toxicity, MTS assay (CC50); format: cell-based, canine; settings: dog, MDCK cells, MTS assay, 4 days; mean of 2 or 3 determinations; read-out: MDCK (CC50) in vitro cytotoxicity
Procedure: (§1) Five eukaryotic cell lines were used to determine the cytotoxicity of the compounds: human embryonic lung (HEL) fibroblast cells, human cervixcarinoma-derived HeLa cells, human T-cell leukemia-derived MT4 cells, MDCK cells, and African Green monkey kidney-derived VERO cells. Semi-confluent cell cultures in 96-well plates were exposed to serial dilutions of the compounds or to medium (= no compound control), then incubated at 37°C. Four days later, the cells were inspected by microscopy to determine the MCC, that is, compound concentration that causes a microscopically detectable alteration of normal cell morphology. Next, the MTS cell viability reagent (CellTiter 96 AQueous MTS Reagent from Promega) was added. After 4 hours of incubation at 37°C, OD at 490 nm was recorded in a microplate reader.

MRSA strain MW2 = experiment: Intravenous MRSA infection model in mice, CFU enumeration in organs; format: in vivo; settings: single i.p. injection 100 µl of 5 mM, 1 hour before or after i.v. infection with 5 × 10^7 CFU MW2; 24 hours
Procedure: Mice were infected systemically with the community-associated MRSA strain MW2 at an infectious dose of 5 × 10^7 colony-forming units (CFUs) as described ([26]). Treatment groups were injected intraperitoneally with the compound of interest 1 hour before or after infection, with a saline-injected control group. After 24 hours of infection, mice were sacrificed, and blood, peritoneal fluid, spleen, liver, kidney (left), heart, and lungs were harvested for CFU enumeration to determine the bacterial burden in these organs. […] Although disappointing, the lack of promising results in the single-dose treatments may have a variety of reasons, including rapid metabolism and excretion of the compounds by the liver, or the acknowledged intracellular aspect of S. aureus in its infectious cycle ([27]). […] Additionally, investigating the possibility of topical application for these components presents another viable option.
Animal experiments were performed with 6- to 10-week/old adult male mice. Mice were kept in a pathogen-free facility under standardized conditions: temperature of 21–22°C, illumination of 12-hour light–12-hour dark, and access to tap water and food. Experimental animal protocols were approved by the University of Calgary Animal Care Committee and followed the Canadian Council for Animal Care Guidelines.
MW2 Staphylococcus aureus was grown on brain heart infusion (BHI) agar plates (BD biosciences). A single colony was grown overnight in BHI medium (BD biosciences) at 37°C while shaking. Subcultures of […] of the overnight (ON) culture were grown in 3 mL of the same culture medium for 2 hours at 37°C while shaking to reach the exponential growth phase. Bacteria were brought to a concentration of OD660 1.0 in saline. […]
For assessing bacterial by CFU enumeration, the mice were anesthetized with isoflurane (Fresenius Kabi) and washed with 70% ethanol to collect blood and sacrificed to further collect liver, spleen, kidney (left), heart, and lungs. […] Cultures were counted, and CFUs were calculated taking the weight of the organ into account.

[2] = system: 10 clinical isolates of MRSA from Foothills Hospital, Calgary; experiment: Planktonic susceptibility (MIC/MBC) of MRSA clinical isolates; format: cell-based, methicillin-resistant S. aureus; settings: Staphylococcus aureus
Procedure: All bacterial strains subjected to testing had been stored at −70°C prior to the experiment. The experiment commenced by streaking small amounts of the frozen bacterial samples onto Muller-Hinton agar (MHA) culture medium (BD Bacto, Oxoid, Basingstoke, UK Cat# X296B) and allowing for overnight incubation. Bacteria were re-cultured on MHA plates as required to confirm colony morphology and lack of contamination. Strains tested were P. aeruginosa ATCC 27853, E. coli ATCC 25922, Staphylococcus aureus ATCC 25923, MRSA ATCC 33591, S. epidermidis ATCC 12228, Klebsiella pneumoniae ATCC, P. mirabilis ATCC 35659, and 10 clinical isolates of MRSA from Foothills Hospital, Calgary, Canada. To prepare for susceptibility testing, a protocol modified from Lemire et al was used ([28]). MHB was swab-inoculated from MHA colonies and shake-incubated until turbid. Dilution of the broth with 0.9% saline was performed as necessary to match a 1.0 McFarland standard.
MIC and MBC assessments were conducted on all bacterial strains using 96-well microtiter plates. To prepare the wells for bacteria, serial dilutions of the antibacterial agents were carried out along the rows of two microtiter plates. The antibacterials were 2-fold diluted with Mueller-Hinton broth (MHB) in each column, reaching a volume of 75 µL. The 1.0 McFarland standard was diluted 15-fold in MHB, and 75 µL of inoculum was added to the wells treated with antibacterials, resulting in a total volume of 150 µL. The microtiter plates were covered and then shake-incubated overnight at 150 rpm and 37°C. MIC was determined based on visible bacterial growth. […] MBC was determined by transferring 3 µL of culture from all MIC microtiter plate wells to 147 µL of Mueller-Hinton broth in fresh plates. These plates were shake-incubated overnight at 150 rpm and 37°C, and bacterial growth was visually inspected.

MT4 cells = experiment: Eukaryotic cell toxicity; format: cell-based, Human; settings: 4 days
Procedure: as §1

HeLa cells = experiment: Eukaryotic cell toxicity, microscopy (MCC); format: cell-based, Human; settings: minimum concentration causing microscopically detectable alteration of cell morphology; 4 days
Procedure: as §1

HEL cells = experiment: Eukaryotic cell toxicity, microscopy (MCC); format: cell-based, Human; settings: minimum concentration causing microscopically detectable alteration of cell morphology; 4 days
Procedure: as §1

## O=C(Nc1ccc(S(F)(F)(F)(F)F)cc1)Nc1ccc(Cl)c(Cl)c1 [EBP-59]
[1]
  CC50 at 4 days: ≥ 100 µM
MRSA strain MW2
  bacterial burden (CFU) in blood, spleen, liver, kidney, heart, lungs: failed to reduce bacterial counts; also recorded: not significant
[2]; MRSA #1 clinical isolate
  MBC: 5 µM (≈ 2.04 µg/mL)
  MIC: < 2 µM
[2]; MRSA #2 clinical isolate
  MBC: < 2 µM
  MIC: < 2 µM
[2]; MRSA #3 clinical isolate
  MBC: < 2 µM
  MIC: < 2 µM
[2]; MRSA #4 clinical isolate
  MBC: 5 µM (≈ 2.04 µg/mL)
  MIC: < 2 µM
[2]; MRSA #5 clinical isolate
  MBC: 10 µM (≈ 4.07 µg/mL)
  MIC: < 2 µM
[2]; MRSA #6 clinical isolate
  MBC: < 2 µM
  MIC: < 2 µM
[2]; MRSA #7 clinical isolate
  MBC: < 2 µM
  MIC: < 2 µM
[2]; MRSA #8 clinical isolate
  MBC: 5 µM (≈ 2.04 µg/mL)
  MIC: < 2 µM
[2]; MRSA #9 clinical isolate
  MBC: 20 µM (≈ 8.14 µg/mL)
  MIC: < 2 µM
[2]; MRSA #10 clinical isolate
  MBC: 40 µM (≈ 16.3 µg/mL)
  MIC: < 2 µM
MT4 cells
  MT4 (MCC) in vitro cytotoxicity: 3.9 µM
HeLa cells
  HeLa (MCC) in vitro cytotoxicity: 4 µM
HEL cells
  HEL (MCC) in vitro cytotoxicity: >4 µM

## O=C(Nc1ccc(Cl)cc1)Nc1cccc(S(F)(F)(F)(F)F)c1 [EBP-62, 1-(4-chlorophenyl)-3-(3-(pentafluoro-λ^6-sulfanyl)phenyl)urea]
[1]
  CC50 at 4 days: 100 µM
MRSA strain MW2
  bacterial burden (CFU) in blood, spleen, liver, kidney, heart, lungs: failed to reduce bacterial counts; also recorded: not significant
[2]; MRSA #1 clinical isolate
  MBC: 80 µM (≈ 29.8 µg/mL)
  MIC: < 2 µM
[2]; MRSA #2 clinical isolate
  MBC: 5 µM (≈ 1.86 µg/mL)
  MIC: < 2 µM
[2]; MRSA #3 clinical isolate
  MBC: < 2 µM
  MIC: < 2 µM
[2]; MRSA #4 clinical isolate
  MBC: 20 µM (≈ 7.45 µg/mL)
  MIC: < 2 µM
[2]; MRSA #5 clinical isolate
  MBC: 20 µM (≈ 7.45 µg/mL)
  MIC: < 2 µM
[2]; MRSA #6 clinical isolate
  MBC: 5 µM (≈ 1.86 µg/mL)
  MIC: < 2 µM
[2]; MRSA #7 clinical isolate
  MBC: 10 µM (≈ 3.73 µg/mL)
  MIC: 5 µM (≈ 1.86 µg/mL)
[2]; MRSA #8 clinical isolate
  MBC: 80 µM (≈ 29.8 µg/mL)
  MIC: 5 µM (≈ 1.86 µg/mL)
[2]; MRSA #9 clinical isolate
  MBC: 40 µM (≈ 14.9 µg/mL)
  MIC: < 2 µM
[2]; MRSA #10 clinical isolate
  MBC: 80 µM (≈ 29.8 µg/mL)
  MIC: 5 µM (≈ 1.86 µg/mL)
MT4 cells
  MT4 (MCC) in vitro cytotoxicity: 4.7 µM
HeLa cells
  HeLa (MCC) in vitro cytotoxicity: >4 µM
HEL cells
  HEL (MCC) in vitro cytotoxicity: 20 µM

## O=C(Nc1ccc(Cl)cc1)Nc1ccc(S(F)(F)(F)(F)F)cc1 [EPB-61, 1-(4-Chlorophenyl)-3-(4-(pentafluoro-λ^6-sulfanyl)phenyl)urea]
[1]
  CC50 at 4 days: ≥ 100 µM
MRSA strain MW2
  bacterial burden (CFU) in blood, spleen, liver, kidney, heart, lungs: failed to reduce bacterial counts; also recorded: not significant
[2]; MRSA #1 clinical isolate
  MBC: 40 µM (≈ 14.9 µg/mL)
  MIC: < 2 µM
[2]; MRSA #2 clinical isolate
  MBC: 10 µM (≈ 3.73 µg/mL)
  MIC: < 2 µM
[2]; MRSA #3 clinical isolate
  MBC: 10 µM (≈ 3.73 µg/mL)
  MIC: < 2 µM
[2]; MRSA #4 clinical isolate
  MBC: 20 µM (≈ 7.45 µg/mL)
  MIC: < 2 µM
[2]; MRSA #5 clinical isolate
  MBC: 40 µM (≈ 14.9 µg/mL)
  MIC: < 2 µM
[2]; MRSA #6 clinical isolate
  MBC: 20 µM (≈ 7.45 µg/mL)
  MIC: < 2 µM
[2]; MRSA #7 clinical isolate
  MBC: 20 µM (≈ 7.45 µg/mL)
  MIC: < 2 µM
[2]; MRSA #8 clinical isolate
  MBC: 40 µM (≈ 14.9 µg/mL)
  MIC: < 2 µM
[2]; MRSA #9 clinical isolate
  MBC: 40 µM (≈ 14.9 µg/mL)
  MIC: < 2 µM
[2]; MRSA #10 clinical isolate
  MBC: 20 µM (≈ 7.45 µg/mL)
  MIC: < 2 µM
MT4 cells
  MT4 (MCC) in vitro cytotoxicity: 2.8 µM
HeLa cells
  HeLa (MCC) in vitro cytotoxicity: 4 µM
HEL cells
  HEL (MCC) in vitro cytotoxicity: >4 µM

— article PMC11237694, “Novel pentafluorosulfanyl-containing triclocarban analogs selectively kill Gram-positive bacteria” (Microbiology Spectrum, 2024)
